# How the values were obtained:
# NIH-3T3 fibroblasts = experiment: TIQUAS quantification of phosphorylation sites in starved, serum-stimulated cells with or without wortmannin pre-incubation; assay type: cell-based, murine; conditions: of 2,350 phosphorylated peptides quantified; WM treatment of cells prior to serum stimulation; 4 experiments
# Method: The novel quantitative techniques of the invention were used to quantify phosphorylation sites in NIH-3T3 fibroblasts, which were starved and then stimulated with serum with or without pre-incubation with the pan-PI3K inhibitor wortmannin (WM). These experiments were performed 4 times. […] Cells were treated as indicated, lysed with a urea-based buffer to obtain nuclear as well as cytosolic proteins and proteins digested. Resultant phosphorylated peptides were enriched by IMAC and TiO2 chromatography and quantified by LC-MS using a computer program developed by the inventors ([…]) (Cutillas and Vanhaesebroeck, Molecular & Cellular Proteomics 6, 1560-1573 (2007)). FIG. 2(B) gives a summary of the data obtained and a snapshot of the data sorted by probability.
# MV4-11 = experiment: Sensitivity of AML cell lines to drug treatment (MTS assay); assay type: cell-based; conditions: 72 h
# Method: (§1) Sensitivity of AML cell lines to drug treatment. Eight cell lines (AML-193, CMK, CTS, HEL, Kasumi-1, KG-1, MV4-11 and P31/FUJ) were seeded in 96 well plates at 1×10^5 cell/ml in triplicate for each condition. After a recovery period of 2 h, cells were treated with increasing concentrations (1 nM, 10 nM, 100 nM, 1 μM and 10 μM) of FLT3 inhibitor, MEK I inhibitor, JAK I inhibitor, LY294002, PI-103 and IC87114. As controls, cells were both treated with the vehicle (DMSO) and left untreated. After 72 hours treatment, cell viability was assessed by MTS assay (CellTiter 96® AQueous One Solution Cell Proliferation assay, Promega Corporation, Madison, Wis., USA).
# P31/FUJ = experiment: as above; assay type: cell-based; conditions: 72 h
# Method: as §1
# HEL = experiment: as above; assay type: cell-based; conditions: 72 h
# Method: as §1
# AML-193 = experiment: as above; assay type: cell-based; conditions: 72 h
# Method: as §1
compound,measurement,setting,value
"COC[C@H]1OC(=O)c2coc3c2[C@@]1(C)C1=C(C3=O)[C@@H]2CCC(=O)[C@@]2(C)C[C@H]1OC(C)=O [WM, wortmannin]",phosphorylated peptides significantly (p<0.05) affected by WM treatment,NIH-3T3 fibroblasts,265
Oc1cccc(-c2nc(N3CCOCC3)c3oc4ncccc4c3n2)c1 [PI-103],sensitivity of cell line to inhibitor (survival by MTS assay),MV4-11,sensitive
same,sensitivity of cell line to inhibitor (survival by MTS assay),P31/FUJ,resistant
CC(C)(C)c1nc2c3cc[nH]c(=O)c3c3cc(F)ccc3c2[nH]1 [JAK I],sensitivity of cell line to inhibitor (survival by MTS assay),HEL,resistant
same,sensitivity of cell line to inhibitor (survival by MTS assay),AML-193,sensitive

# Reference: patent US9110076B2, “Method for quantifying modified peptides” (HVIVO SERVICES LIMITED, priority 2009, dated 2015)
